Reference: PubChem BioAssay AID2060910 (Molecular Pharmacology Branch, DTP, NCI, 2025)

System: 242566-281-R-J2-PDC complex spheroid viability
Test: Anticancer human tumor 242566-281-R-J2-PDC patient-derived pancreatic carcinoma cell line growth inhibition [RAS]
Settings: for IC50: curve of first compound; for viability, T/C: stronger effect = lower value; active means viability on the fitted dose curve at most 10% of control; inactive means the rest
Summary of the method: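 Multi-cell-type spheroids: tumor cells plus HUVEC endothelial cells and mesenchymal stem cells. RAS-pathway inhibitors were combined with targeted agents, each dosed in half-log steps down from clinical Cmax, or from 10 microM when Cmax was unknown.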
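Further: spheroids exposed to compound for 7 days before readout.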
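Wherever viability, T/C is given: 100% = DMSO vehicle control wells.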

Nc1ccn(C2OC(CO)C(O)C2(F)F)c(=O)n1 (configuration not stated) + C#Cc1c(F)ccc2cc(O)cc(-c3ncc4c(N5CC6CCC(C5)N6)nc(OCC56CCCN5CC(F)C6)nc4c3F)c12
10.2 nM: IC50 (second compound 1 µM)
inactive: viability, T/C (second compound 0.0316 µM, first compound 0.00316 µM) 84.9% | viability, T/C (second compound 0.0316 µM, first compound 0.01 µM) 105% | viability, T/C (second compound 0.0316 µM, first compound 0.0316 µM) 71.6% | viability, T/C (second compound 0.0316 µM, first compound 0.1 µM) 48.5% | viability, T/C (second compound 0.0316 µM, first compound 0.316 µM) 41.8% | viability, T/C (second compound 0.0316 µM, first compound 1 µM) 30.9% | viability, T/C (second compound 0.1 µM, first compound 0.00316 µM) 75.7% | viability, T/C (second compound 0.1 µM, first compound 0.01 µM) 88.7% | viability, T/C (second compound 0.1 µM, first compound 0.0316 µM) 70.6% | viability, T/C (second compound 0.1 µM, first compound 0.1 µM) 54.7% | viability, T/C (second compound 0.1 µM, first compound 0.316 µM) 51.6% | viability, T/C (second compound 0.1 µM, first compound 1 µM) 39.8% | viability, T/C (second compound 0.316 µM, first compound 0.00316 µM) 64% | viability, T/C (second compound 0.316 µM, first compound 0.01 µM) 71.1% | viability, T/C (second compound 0.316 µM, first compound 0.0316 µM) 49.4% | viability, T/C (second compound 0.316 µM, first compound 0.1 µM) 52.1% | viability, T/C (second compound 0.316 µM, first compound 0.316 µM) 49.8% | viability, T/C (second compound 0.316 µM, first compound 1 µM) 44% | viability, T/C (second compound 1 µM, first compound 0.00316 µM) 56.2% | viability, T/C (second compound 1 µM, first compound 0.01 µM) 55.5% | viability, T/C (second compound 1 µM, first compound 0.0316 µM) 40.8% | viability, T/C (second compound 1 µM, first compound 0.1 µM) 41.4% | viability, T/C (second compound 1 µM, first compound 0.316 µM) 45.7% | viability, T/C (second compound 1 µM, first compound 1 µM) 41.9% | viability, T/C (second compound 3.16 µM, first compound 0.00316 µM) 38.6% | viability, T/C (second compound 3.16 µM, first compound 0.01 µM) 55.4% | viability, T/C (second compound 3.16 µM, first compound 0.0316 µM) 50.8% | viability, T/C (second compound 3.16 µM, first compound 0.1 µM) 36.5% | viability, T/C (second compound 3.16 µM, first compound 0.316 µM) 39% | viability, T/C (second compound 3.16 µM, first compound 1 µM) 36.2% | viability, T/C (second compound 10 µM, first compound 0.00316 µM) 42.3% | viability, T/C (second compound 10 µM, first compound 0.01 µM) 53.9% | viability, T/C (second compound 10 µM, first compound 0.0316 µM) 48.9% | viability, T/C (second compound 10 µM, first compound 0.1 µM) 38.3% | viability, T/C (second compound 10 µM, first compound 0.316 µM) 34.1% | viability, T/C (second compound 10 µM, first compound 1 µM) 30.7%
< 3.16 nM: IC50 (second compound 10 µM)
180 nM: IC50 (second compound 0.316 µM)
201 nM: IC50 (second compound 0.1 µM)
86 nM: IC50 (second compound 0.0316 µM)
3.16 nM: IC50 (second compound 3.16 µM)
